The results in this text go back to ChEMBL document CHEMBL2057075, “Guanacastane-type diterpenoids with cytotoxic activity from Coprinus plicatilis” (Bioorg Med Chem Lett, 2012).

The subject of one test is U2OS. The experiment in a line: Cytotoxicity against human U2OS cells after 72 hrs by MTT assay. The class given is functional, cell-based.
In a further test the test system is BGC-823. Briefly: Cytotoxicity against human BGC823 cells after 72 hrs by MTT assay. Particulars: BGC-823, 72 h. The test is classed as functional, cell-based.
Test [1] relates to HepG2. Briefly: Growth inhibition of human HepG2 cells at 20 uM after 72 hrs by MTT assay. The test is classed as functional, cell-based.
For test [2], the system named is HepG2. The experiment in a line: cells. Particulars: Homo sapiens, HepG2, 72 h.
Description: Cytotoxicity against human HepG2 cells after 72 hrs by MTT assay
A further test relates to HeLa. Briefly: cells. Particulars: Homo sapiens, 72 h.
In the next test the test system is HCT-116. Briefly: cells. Particulars: Homo sapiens, HCT-116, 72 h.
The next test relates to MDA-MB-231. The experiment in a line: cells. The conditions noted are these: Homo sapiens, MDA-MB-231, 72 h.

Calls of active or inactive are those of the source. The calls are words filed in the database; no cut-off is given here. Bounds are passed on as bounds.

Description for HeLa: Cytotoxicity against human HeLa cells after 72 hrs by MTT assay
Description for MDA-MB-231: Cytotoxicity against human MDA-MB-231 cells after 72 hrs by MTT assay

As for `CC(C)[C@H]1C(=O)CC2=C(O)C3=C(CO)[C@@H](O)CC[C@@]3(C)CC[C@@]21C` (relative stereo), the IC50 is more than 50 µM in the test with U2OS; more than 50 µM with BGC-823; 25.9 µM with HepG2 [2]; more than 50 µM in the test with HeLa; 38.9 µM in the test on HCT-116; more than 50 µM in the test with MDA-MB-231. Moreover, in the test on HepG2 [1], the “growth inhibition (GI)” value was “Active”.

Turning to `CC(=O)O[C@H]1C(=O)[C@@H]2[C@H]3OCC4=C3[C@@](C)(CC[C@@H]4O)CC[C@]2(C)[C@H]1C(C)C`, in the test on HepG2 [1], the “growth inhibition (GI)” value was “inactive”.

`COc1cccc2c1C(=O)c1c(O)c3c(c(O)c1C2=O)C[C@@](O)(C(=O)CO)C[C@@H]3O[C@H]1C[C@H](N)[C@H](O)[C@H](C)O1` [DOXORUBICIN]: the IC50 in the test with U2OS came out at 3.4 µM; in the test on BGC-823, 0.9 µM; in the test with HepG2 [2], 0.7 µM; in the test with HeLa, 0.6 µM; in the test with HCT-116 it was 0.3 µM.

Regarding `CC(C)[C@H]1[C@@H](O)[C@@H](O)C2=C3OC(=O)C4=C3[C@@](C)(CC[C@@H]4O)CC[C@@]21C` (relative stereo), the 50% inhibitory concentration (IC50) in the test with U2OS was 19.3 µM; in the test with BGC-823, 2.4 µM; with HepG2 [2], 2.3 µM; in the test with HeLa, 5 µM; in the test with HCT-116 it was 1.2 µM; in the test with MDA-MB-231, 6 µM. The “growth inhibition (GI)” value with HepG2 [1] was “Active”.

`CC(C)[C@H]1[C@@H](O)C(=O)[C@@]2(O)[C@H]3OCC4=C3[C@@](C)(CC[C@@H]4O)CC[C@]12C` (relative stereo): the IC50 with U2OS was 39.7 µM; in the test with BGC-823, 35.6 µM; in the test with HepG2 [2], 16.9 µM; in the test with HeLa, more than 50 µM; in the test with HCT-116 it was 19.8 µM; in the test on MDA-MB-231, 34.8 µM. For the same compound, the “growth inhibition (GI)” value in the test on HepG2 [1] was “Active”.

As for `CC(C)[C@H]1[C@@H](O)[C@H](O)C2=CC3=C(CO)CCC[C@@]3(C)CC[C@@]21C` (relative stereo), the “growth inhibition (GI)” value in the test with HepG2 [1] was “inactive”.
